Assay results published in patent publication US20220143148A1, “COMPOSITIONS AND METHODS FOR MODULATING CGRP SIGNALING TO REGULATE INTESTINAL INNATE LYMPHOID CELLS” (The Broad Institute, Inc., priority 2019, published 2022).

Tested on: intestinal KLRG1+ ILC2s
Assay: Bulk RNA-seq of intestinal KLRG1+ ILC2s stimulated in vitro
Assay type: cell-based, mouse
From the text: To determine if α-CGRP can directly trigger signaling in ILC2s and impact their transcriptional states under inflammatory conditions, Applicants performed bulk RNA-seq of KLRG1^+ ILC2s isolated from the small intestine and stimulated in vitro with IL-25 alone or together with α-CGRP. […] Thus, α-CGRP inhibits IL-25-induced proliferation and activation of intestinal KLRG1+ILC2s.
The presence at homeostasis of α-CGRP receptors on ILC2s and α-CGRP's expression on ChAT^+ intestinal neurons led Applicants to hypothesize that it has an effect on ILC2s during homeostasis. To test this hypothesis, Applicants next measured the expression profiles of intestinal KLRG1^+ ILC2s stimulated in vitro by α-CGRP alone, and identified genes differentially expressed under this signal (FIG. 6D, Methods).
ILC2 culture. Sort-purified intestinal KLRG1^+ ILC2s were incubated in RPMI supplemented with 10% FCS, 10 mM Hepes, 1 mM sodium pyruvate, 10% FBS, 80 μm 2-mercaptoethanol, 2 mM glutamine, 100 U/ml penicillin, […] streptomycin, 100 ng/ml IL-2 and 100 ng/ml IL-7 in 96-well round bottom plate at 37° C. and 5% CO2. If indicated, the culture was supplemented with 100 ng/ml IL-25. For the in vitro proliferation assay, cells from different mice were pooled and labeled with CellTrace Violet, and then cultured at 1,000-1,500 cells per well with 10 μg/ml α-CGRP for 60 hours. When indicated, 10 μM forskolin or 1 μM SQ 22, 536 in DMSO was supplied and cells were cultured for 40 hours. For bulk RNA-seq, cells from individual mice were stimulated at 200 cells per well with 0.4 μg/ml α-CGRP for 3 hours. For bulk ATAC-seq, cells were stimulated with 0.4 μg/ml α-CGRP for 2 hours.
Bulk RNA-seq. 200 ILC2s from each condition were lysed in 10 ul TCL buffer plus 0.5% 2-Mercaptoethanol. Libraries were processed with SMART-Seq2 (Picelli et al., 2013) with at least three replicates per condition, and paired-end sequenced (75 bp×2) with a […] Nextseq 500 high output V2 kit.
Reads were aligned to the mouse reference genome (NCBI 38, mm10) using Bowtie (Langmead et al., 2009) with default parameters, and expression abundances were estimated using RSEM software (Li and Dewey, 2011). The differential gene expression analysis was performed with edgeR (Robinson et al., 2010) with default parameters.

In the case of “α-CGRP: neuropeptide alpha-calcitonin gene-related peptide, encoded by exon 5 of Calca; administered as peptide”, the Il5 expression (IL-25 together with α-CGRP in vitro) is reported as “further induced”, the IL-25-induced activation signature (IL-25 together with α-CGRP in vitro, adjusted P<0.001, t-test) is reported as “significantly suppressed” and the “expression of adenylate cyclase-mediated GPCR signaling genes (Adrb2, Adora2a, Pde4b, Akap12) and cAMP response genes (Areg, Crem, Il5)” value (α-CGRP alone in vitro) is reported as “induced expression”. The “expression of cell cycle arrest genes (Cdkn1a, Gadd45a, Akap12) and negative regulators of ILC2 expansion (Adrb2, Pdcd1)” value (α-CGRP alone in vitro) was “induced expression”.
